Data taken from publication PMC6219668 (Oncotarget, 2018).

How the values were obtained:
HCC-4006 = experiment: cells; type: cell-based; details: Homo sapiens, HCC4006; HCC-4006, 72 h
A-375 = experiment: cells; type: cell-based; details: Homo sapiens, A-375, 72 h
SK-MEL-5 [1] = experiment: cells; type: cell-based; details: Homo sapiens, SK-MEL-5, 72 h
MDA-MB-415 = experiment: cells; type: cell-based; details: Homo sapiens, MDA-MB-415, 72 h
SK-N-SH = experiment: cells; type: cell-based; details: Homo sapiens, 72 h
HBCx-6 = type: in vivo; details: HBCx-6, Breast, TNBC, Rb present; 125 mg/kg bid × 21
HCC-827 = experiment: cells; type: cell-based; details: Homo sapiens, HCC827; HCC-827, 72 h
NCI-H1573 = experiment: cells; type: cell-based; details: Homo sapiens, NCI-H1573, 72 h
NCI-H2030 [2] = experiment: cells; type: cell-based; details: Homo sapiens, NCI-H2030, 72 h
NCI-H3255 [3] = experiment: cells; type: cell-based; details: Homo sapiens, NCI-H3255, 72 h
HBCx-2 = type: in vivo; details: HBCx-2, Breast, TNBC, Rb absent; 125 mg/kg bid × 21
TE-14 = experiment: cells; type: cell-based; details: TE-14, 72 h
HPAX1633 = type: in vivo; details: HPAX1633, Pancreatic, Rb present; 250 mg/kg qd
SK-MEL-5 [4] = experiment: cells; type: cell-based; details: Homo sapiens, SK-MEL-5, 72 h; remark: listed apart in the source
HBCx-16 = type: in vivo; details: HBCx-16, Breast, HER2High, Rb present; 125 mg/kg bid × 21
Maximum tolerated dosage = type: in vivo; details: mice, once daily
HMEX1906 = type: in vivo; details: mouse, in vivo, 250 mg/kg
Description: Animals were housed in a temperature-
In all studies, tumor volume was calculated
For using the following formula: (length × width2)/2. Percent
Data are presented as the percent

CDK2/cyclin A = details: cited from earlier work
SK-MEL-2 = experiment: cells; type: cell-based; details: Homo sapiens, SK-MEL-2, 72 h
HBCx-8 = type: in vivo; details: HBCx-8, Breast, TNBC, Rb present; 125 mg/kg bid × 21
SNU-761 [5] = experiment: cells; type: cell-based; details: SNU-761, 72 h
SNU-761 [6] = experiment: cells; type: cell-based; details: SNU-761, 72 h; remark: listed apart in the source
WBCs and ANC = experiment: Blood counts in JeKo-1 rat model; type: in vivo; details: all treatment groups compared with vehicle
Excerpt: To further characterize the pharmacokinetic/pharmacodynamic (PK/PD) relationship and simultaneously compare antitumor effects with white blood cell (WBC) counts in host animals, we used the JeKo-1 xenograft model in nude rats. […]. We observed dose-proportional increases in both drug exposure and target inhibition (Supplementary Table 5). […]. This dose-proportional target inhibition correlated with dose-dependent antitumor efficacy in the same JeKo-1 xenograft model.

A549 = experiment: cells; type: cell-based; details: Homo sapiens, A549, 72 h
NCI-H1792 = experiment: cells; type: cell-based; details: Homo sapiens, NCI-H1792, 72 h
SK-MEL-28 = experiment: cells; type: cell-based; details: Homo sapiens, SK-MEL-28, 72 h
HBCx-14 = type: in vivo; details: HBCx-14, Breast, TNBC, Rb absent; 125 mg/kg bid × 21
OE33 = experiment: cells; type: cell-based; details: Homo sapiens, OE33, 72 h
[7] = type: in vivo
HBRX1286 = type: in vivo; details: HBRX1286, Breast, TNBC, Rb absent; 250 mg/kg qd
NCI-H441 = experiment: cells; type: cell-based; details: Homo sapiens, NCI-H441, 72 h
KELLY = experiment: cells; type: cell-based; details: 72 h
KYSE150 = experiment: cells; type: cell-based; details: Homo sapiens, KYSE-150; KYSE150, 72 h
T-47d = experiment: cells; type: cell-based; details: Homo sapiens, T47D, 72 h
NCI-H3255 [8] = experiment: cells; type: cell-based; details: Homo sapiens, NCI-H3255, 72 h; remark: listed apart in the source
TE-11 = experiment: cells; type: cell-based; details: Homo sapiens, TE-11, 72 h
NCI-H2030 [9] = experiment: cells; type: cell-based; details: Homo sapiens, NCI-H2030, 72 h; remark: listed apart in the source
SNU-387 = experiment: cells; type: cell-based; details: Homo sapiens, SNU-387, 72 h
MGH051 = experiment: cells; type: cell-based; details: MGH051, 72 h
PC-14 = experiment: cells; type: cell-based; details: Homo sapiens, PC-14, 72 h
REH = experiment: cells; type: cell-based; details: Homo sapiens, ALL, dominant CDK6, read-out: IC50, mean ± SD

CN(C)C(=O)c1cc2cnc(Nc3ccc(N4CCNCC4)cn3)nc2n1C1CCCC1 [Ribociclib, 7-cyclopentyl-2-(5-piperazin-1-yl-pyridin-2-ylamino)-7H-pyrrolo[2,3-d]pyrimidine-6-carboxylic acid dimethylamide]
IC50 (HCC-4006): > 10 µM | IC50 (A-375): > 10 µM | IC50 (SK-MEL-5 [1]): > 10 µM | IC50 (MDA-MB-415): > 10 µM | IC50 (SK-N-SH): 9 µM | T/C (HBCx-6): 64 | IC50 (HCC-827): > 10 µM | IC50 (NCI-H1573): 0.61 µM | IC50 (NCI-H2030 [2]): > 10 µM | IC50 (NCI-H3255 [3]): > 10 µM | T/C (HBCx-2): 102 | IC50 (TE-14): > 10 µM | T/C (HPAX1633): 30 | IC50 (SK-MEL-5 [4]): 2.09 µM | T/C (HBCx-16): 71 | maximum tolerated dosage (Maximum tolerated dosage): 250 mg/kg | T/C (HMEX1906): -12 | activity against CDK2/cyclin A (CDK2/cyclin A): far less active | IC50 (SK-MEL-2): > 10 µM | T/C (HBCx-8): 10 | IC50 (SNU-761 [5]): 0.67 µM | IC50 (SNU-761 [6]): > 10 µM | absolute neutrophil counts (WBCs and ANC): reduced | total WBC counts (WBCs and ANC): reduced | IC50 (A549): > 10 µM | IC50 (NCI-H1792): 0.61 µM | IC50 (SK-MEL-28): 0.98 µM | T/C (HBCx-14): 92 | IC50 (OE33): 0.63 µM | body weight loss ([7]; 150 mg/kg): only minimal transient body weight loss | tolerability ([7]; all ribociclib doses, no significant body weight loss): well tolerated | T/C (HBRX1286): 82 | IC50 (NCI-H441): 4.74 µM | IC50 (KELLY): 0.27 µM | IC50 (KYSE150): 6.7 µM | IC50 (T-47d): > 10 µM | IC50 (NCI-H3255 [8]): > 10 µM | IC50 (TE-11): 4.41 µM | IC50 (NCI-H2030 [9]): 8.33 µM | IC50 (SNU-387): > 10 µM | IC50 (MGH051): > 10 µM | IC50 (PC-14): > 10 µM

CC(=O)c1c(C)c2cnc(Nc3ccc(N4CCNCC4)cn3)nc2n(C2CCCC2)c1=O [Palbociclib, reference compound]
IC50 (REH): 60 ± 17 µM
